The source of these data is ChEMBL document CHEMBL3044772, “QSAR modeling of some substituted benzimidazole as Angotensin II AT1 receptor antagonist” (Med Chem Res, 2010).

The target in one test is T1, Type-1 angiotensin II receptor (Bos taurus, UniProt P25104).
T1 sequence (P25104 whole entry): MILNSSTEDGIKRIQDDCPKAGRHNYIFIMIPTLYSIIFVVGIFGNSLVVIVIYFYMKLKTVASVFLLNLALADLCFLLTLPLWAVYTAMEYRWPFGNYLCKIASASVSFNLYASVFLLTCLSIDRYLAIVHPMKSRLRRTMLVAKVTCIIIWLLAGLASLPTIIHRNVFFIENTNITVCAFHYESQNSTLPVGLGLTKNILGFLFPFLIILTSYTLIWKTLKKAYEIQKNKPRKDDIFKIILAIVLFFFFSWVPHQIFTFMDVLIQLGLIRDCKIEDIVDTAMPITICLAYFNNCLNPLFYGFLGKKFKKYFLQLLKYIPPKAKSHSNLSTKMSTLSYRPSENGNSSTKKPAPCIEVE
The test is described as follows: Displacement of [125I]angiotensin 2 from type-1 angiotensin 2 receptor in Bos taurus (bovine) adrenal cortical membrane. The conditions noted are these: read-out: IC50. (In general: Displacement assays read how much labelled ligand stays bound in the presence of the test substance.)
On to `CCCCc1nc2ccc(C)c(C(=O)OCC)c2n1Cc1ccc(-c2ccccc2-c2nnn[nH]2)cc1`, for which the IC50 is 910 nM.
On the same count and under the same terms, to `CCCCc1nc2cccc(COC)c2n1Cc1ccc(-c2ccccc2-c2nn[nH]n2)cc1` belongs 600 nM; to `CCCCc1nc2cccc(CN(C)C)c2n1Cc1ccc(-c2ccccc2-c2nn[nH]n2)cc1`, 2400 nM; to `CCCCc1nc2ccc(C)c(C(=O)O)c2n1Cc1ccc(-c2ccccc2-c2nn[nH]n2)cc1`, 340 nM.
Same read-out and setting: to `CCCCc1nc2cccc(C(=O)OC)c2n1Cc1ccc(-c2ccccc2-c2nn[nH]n2)cc1` belongs 320 nM; to `CCCCc1nc2cc(C(=O)OC)ccc2n1Cc1ccc(-c2ccccc2-c2nn[nH]n2)cc1`, 740 nM.
The same measure, in the same setting: with `CCCCc1nc2ccc(OC)cc2n1Cc1ccc(-c2ccccc2-c2nn[nH]n2)cc1` the figure was 1100 nM; with `CCCCc1nc2cc(Cl)ccc2n1Cc1ccc(-c2ccccc2-c2nn[nH]n2)cc1`, 1500 nM; with `CCCCc1nc2cccc(CC(=O)O)c2n1Cc1ccc(-c2ccccc2-c2nn[nH]n2)cc1`, 2600 nM.
Turning to `CCCCc1nc2cccc(CC(=O)OCC)c2n1Cc1ccc(-c2ccccc2-c2nn[nH]n2)cc1`, the IC50 was 250 nM.
The same measure, in the same setting: with `CCCCc1nc2cc(Cl)cc(C(=O)OC)c2n1Cc1ccc(-c2ccccc2-c2nn[nH]n2)cc1` the figure was 440 nM.
In the case of `CCCCc1nc2cccc(C(=O)OCC)c2n1Cc1ccc(-c2ccccc2-c2nn[nH]n2)cc1`, the IC50 worked out at 1400 nM.
Regarding `CCCCc1nc2cccc(C(=O)O)c2n1Cc1ccc(-c2ccccc2C(=O)O)cc1`, the IC50 worked out at 660 nM.
Still for that read-out and setting: with `CCCCc1nc2ccc(Cl)cc2n1Cc1ccc(-c2ccccc2-c2nn[nH]n2)cc1` the figure was 3100 nM; with `CCCCOC(=O)c1cccc2nc(CCCC)n(Cc3ccc(-c4ccccc4-c4nn[nH]n4)cc3)c12`, 1200 nM; with `CCCCc1nc2cccc(C)c2n1Cc1ccc(-c2ccccc2-c2nn[nH]n2)cc1`, 330 nM.
Still for that read-out and setting: with `CCCCc1nc2cc(C(=O)O)ccc2n1Cc1ccc(-c2ccccc2-c2nn[nH]n2)cc1` the figure was 5500 nM; with `CCCCc1nc2cccc(C(=O)NC(C)C)c2n1Cc1ccc(-c2ccccc2-c2nn[nH]n2)cc1`, 540 nM.
Same read-out and setting: to `CCCCc1nc2cc(OC)ccc2n1Cc1ccc(-c2ccccc2-c2nn[nH]n2)cc1` belongs 910 nM; to `CCCCc1nc2cccc(O)c2n1Cc1ccc(-c2ccccc2-c2nn[nH]n2)cc1`, 1100 nM.
On to `CCCCc1nc2ccc(C(=O)OC)cc2n1Cc1ccc(-c2ccccc2-c2nn[nH]n2)cc1`, for which the IC50 was found to be 440 nM.
The same measure, in the same setting: to `CCCCc1nc2cccc(OC)c2n1Cc1ccc(-c2ccccc2-c2nn[nH]n2)cc1` belongs 2800 nM.
On the same count and under the same terms, with `CCCCc1nc2c(C(=O)OC)cccc2n1Cc1ccc(-c2ccccc2-c2nn[nH]n2)cc1` the figure was 7200 nM; with `CCCCc1nc2cccc(C(=O)O)c2n1Cc1ccc(-c2ccccc2-c2nnnn2C)cc1`, 3400 nM; with `CCCCc1nc2cccc(CO)c2n1Cc1ccc(-c2ccccc2-c2nn[nH]n2)cc1`, 450 nM.
On the same count and under the same terms, to `CCCCc1nc2ccc(C(=O)O)cc2n1Cc1ccc(-c2ccccc2-c2nn[nH]n2)cc1` belongs 9000 nM.
On to `CCCCc1nc2cc(C)cc(C(=O)O)c2n1Cc1ccc(-c2ccccc2-c2nn[nH]n2)cc1`, for which the IC50 is 1300 nM.
On the same count and under the same terms, to `CCCCc1nc2cc(C)cc(C(=O)OC)c2n1Cc1ccc(-c2ccccc2-c2nn[nH]n2)cc1` belongs 870 nM; to `CCCCc1nc2ccccc2n1Cc1ccc(-c2ccccc2C(=O)O)cc1`, 1100 nM.
With `CCCCc1nc2ccccc2n1Cc1ccc(-c2ccccc2-c2nn[nH]n2)cc1`, the IC50 turned out to be 900 nM.

The same test, now with this note: read-out: pIC50 (converted).
Regarding `CCCCc1nc2ccc(C)c(C(=O)O)c2n1Cc1ccc(-c2ccccc2-c2nn[nH]n2)cc1`, the IC50 is 328 nM.
Still for that read-out and setting: with `CCCCc1nc2cccc(CC(=O)O)c2n1Cc1ccc(-c2ccccc2-c2nn[nH]n2)cc1` the figure was 2820 nM; with `CCCCOC(=O)c1cccc2nc(CCCC)n(Cc3ccc(-c4ccccc4-c4nn[nH]n4)cc3)c12`, 1300 nM; with `CCCCc1nc2cc(C(=O)O)ccc2n1Cc1ccc(-c2ccccc2-c2nn[nH]n2)cc1`, 5620 nM.
As to `CCCCc1nc2ccccc2n1Cc1ccc(-c2ccccc2C(=O)O)cc1`, the IC50 was 110 nM.
